Tests used:
NRF2 = NRF2 nuclear localization, immunocytochemistry in AREc32 cells; assay type: cell-based; settings: 30 μM, 2 h, vs basal
Description: AREc32 cells were plated in 24 multi-well plates on poly-D-Lysine-coated crystal slides (4 × 10^4 cells/well). Cells were treated with compounds 7a or 7b (30 µM) for 2 h and fixed by treatment with 4% paraformaldehyde solution in PBS (10 min). After 3 washings with PBS every 5 min, cells were permeabilized with 0.1% Triton X-100 solution for five min, washed 3 times with PBS (5 min) and incubated overnight with primary antibody anti-NRF2 (1:50, A-10, sc-365949, Santa Cruz Biotechnology, Dallas, TX, USA). Thereafter, cells were washed with PBS (3×, 5 min) and incubated with secondary antibody (1:500, 1 h). Finally, nuclei were stained with 5 µg/mL PBS solution of Hoechst 33342 (Invitrogen, Madrid, Spain) during the second wash. Finally, slides were mounted on coverslips (glycerol–PBS (1:1 v/v)), and images were obtained in a confocal microscope (TCS SPE, Leica, Wetzlar, Germany).
To obtain deeper insight into the mechanism of action of compounds 7, we evaluated their potential capacity to induce NRF2 nuclear localization and the activation of the phase II response. As previously described, NRF2 is sequestered at the cytoplasm by its repressor protein KEAP1, which mediates its proteasomal degradation. […] Thus, we firstly evaluated the capacity of compounds 7a and 7b to induce NRF2 nuclear localization as part of their mechanism of action. […]

HO-1 and GCLc = test: Western blot of NRF2-dependent proteins HO-1 and GCLc in AREc32 cells; assay type: cell-based; settings: 30 μM, 24 h, western blot vs basal
Description: AREc32 cells were seeded in 6 multi-well plates (1 × 10^6 cells/well) for 24 h and treated with compounds 7a and 7b (30 µM) and culture medium (basal) for 24 h. Thereafter, cells were collected and lysed in ice-cold lysis buffer (10% glycerol, 137 mM NaCl, 1% Nonidet P-40, 20 mM Tris HCl pH 7.5, 1 mM phenylmethylsulfonyl fluoride, 20 mM NaF, 1 mM sodium pyrophosphate, 1 μg/mL leupeptin and 1 mM Na3VO4). Then proteins (30 μg) were resolved by gel electrophoresis on sodium dodecyl sulfate–polyacrylamide (10% and 12%) and transferred to Immobilion-P membranes (MilliporeSigma, Madrid, Spain). The membranes were incubated with anti-GCLc (1:1000, Ab41463 (Abcam, Cambridge, MA, USA), anti-HO-1 (1:1000, ab68477, Abcam) or anti-Actin (1:100,000, A3854, Merck, Madrid, Spain). Peroxidase-conjugated secondary antibodies (1:10,000 and antirabbit: SC-2357, Santa Cruz Biotechnology, Dallas, TX, USA) were employed to detect the proteins by enhanced chemiluminescence. Band intensities corresponding to immunoblot detection of protein samples were quantitated with Fiji software.
Once in the nucleus, NRF2 binds to small MafG protein, and the resulting complex binds to the ARE sequences at the DNA to initiate the expression of phase II antioxidant proteins. HO-1 and GCLc are two prominent examples of antioxidant enzymes regulated by the NRF2-ARE pathway related to the heme group processing and the synthesis of glutathione, the major antioxidant defense inside the cells. […] Thereafter, protein expression was evaluated.

Row | SMILES | NRF2 nuclear localization (NRF2) | GCLc expression (HO-1 and GCLc) | HO-1 expression (HO-1 and GCLc)
1 | O=C1CN(CCOC(=O)CCCC[C@H]2CCSS2)[C@H](c2ccccc2Cl)c2cc(Cl)ccc2N1 [(S,S)-7a, 2-((S)-7-Chloro-5-(2-chlorophenyl)-2-oxo-1,2,3,5-tetrahydro-4H-benzo[e][1,4]diazepin-4-yl)ethyl 5-((S)-1,2-dithiolan-3-yl)pentanoate] | predominantly nuclear localization of NRF2 | significantly increased | significantly increased
2 | O=C1CN(CCOC(=O)CCCC[C@H]2CCSS2)[C@@H](c2ccccc2Cl)c2cc(Cl)ccc2N1 [(S,R)-7b, 2-((R)-7-Chloro-5-(2-chlorophenyl)-2-oxo-1,2,3,5-tetrahydro-4H-benzo[e][1,4]diazepin-4-yl)ethyl 5-((S)-1,2-dithiolan-3-yl)pentanoate] | predominantly nuclear localization of NRF2 | significantly increased | significantly increased

Reference: publication PMC8772772, “Enantioselective Synthesis and Pharmacological Evaluation of Aza-CGP37157–Lipoic Acid Hybrids for the Treatment of Alzheimer’s Disease” (Antioxidants, 2022)
